Assay results published in US20040087512A1, “In-situ formation of CLA” (priority 1998, published 2004).

Experiments:
C57/B1/6J mice [1] = assay: Example 6: milk fat percentage of mice fed oleic acid isomer diets (creamatocrit); type: in vivo; conditions: for Milk fat on day 10 versus day 6 of lactation: isomer replaces about 25% of dietary fat, four days
Excerpt: (§1) C57/B1/6J mice fed a control diet (10 wt % fat) were switched to one of four isomer diets at day 6 of lactation after milk collection. Approximately 25% of the dietary fat (5 caloric %) during the treatment period was replaced with one of four specific isomers of oleic acid, either cis-9; cis-11; trans-9 or trams-11, other diet components were identical. The mice consumed these diets ad libitum for four days and were milked again on day 10 of lactation. Milk and fecal fatty acid composition was analyzed as fatty acid methyl esters by GC. Specific isomers were identified by relative retention times. Milk fat percentage was determined by the creamatocrit method and differences between day 6 and day 10 fat percentages were evaluated by a paired t-test.

C57/B1/6J mice [2] = assay: Example 6: milk and fecal fatty acid composition of mice fed oleic acid isomer diets (GC of FAME); type: in vivo; conditions: day 10, fed the isomer diet
Excerpt: as §1

cows = assay: Milk fat levels in cows ingesting C18 trans 11 fats; conditions: in vivo

Compound | Milk fat on day 10 versus day 6 of lactation (C57/B1/6J mice [1]) | Test isomer in milk (C57/B1/6J mice [2]) | Effect of ingestion on milk fat in the lactation products of mammals (C57/B1/6J mice [1]; mouse, in vivo) | Effect of ingestion on milk fat levels in cows (cows)
CCCCCCCC/C=C/CCCCCCCC(=O)O [trans-9] | statistically lower | 5.8 % of the fat | – | –
CCCCCCCC/C=C\CCCCCCCC(=O)O [cis-9] | identical fat values | – | – | –
CCCCCC/C=C/CCCCCCCCCC(=O)O [trans-11, trans vaccinic acid] | numerically lower | 3 % of the fat | does not reduce milk fat | do not reduce milk fat levels
CCCCCC/C=C\CCCCCCCCCC(=O)O [cis-11] | numerically lower | 10 % of the fat | – | –
